Assay results: patent US10781211B2, “Spirocycle compounds and methods of making and using same” (Lundbeck La Jolla Research Center, Inc., priority 2016, dated 2020)

Assays:
FAAH [1] = biological target: T1, FAAH (Mus musculus (Mouse), UniProt O08914); experiment: In vitro competitive activity-based protein profiling (mouse brain membrane proteome), FAAH band; type: biochemical; conditions: for inhibition at 1 µM: read-out: FAAH % Inh 1 μM (mouse)
Protocol: (§1) In Vitro Competitive Activity-Based Protein Profiling.
(§2) Proteomes (mouse brain membrane fraction or cell lysates) (50 μL, 1.0 mg/mL total protein concentration) were preincubated with varying concentrations of inhibitors at 37° C. After 30 min, FP-Rh (1.0 μL, 50 μM in DMSO) was added and the mixture was incubated for another 30 min at 37° C. Reactions were quenched with SDS loading buffer (50 μL-4X) and run on SDS-PAGE. Following gel imaging, serine hydrolase activity was determined by measuring fluorescent intensity of gel bands corresponding to MAGL, ABHD6 and FAAH using ImageJ 1.43 u software.

ABHD6 [2] = biological target: T2, ABHD6 (Mus musculus (Mouse), UniProt Q8R2Y0); experiment: In vitro competitive activity-based protein profiling (mouse brain membrane proteome), ABHD6 band; type: biochemical; conditions: read-out: ABHD6 % Inh 1 μM (mouse)
Protocol: as §1, §2

MAGL [3] = biological target: T3, MAGL (Mus musculus (Mouse), UniProt O35678); experiment: In vitro competitive activity-based protein profiling (mouse brain membrane proteome), MAGL band; type: biochemical; conditions: for inhibition at 1 µM: read-out: MAGL % Inh 1 μM (mouse)
Protocol: as §1
Proteomes (mouse brain membrane fraction or cell lysates) (50 μL, 1.0 mg/mL total protein concentration) were preincubated with varying concentrations of inhibitors at 37° C. After 30 min, FP-Rh (1.0 μL, 50 μM in DMSO) was added and the mixture was incubated for another 30 min at 37° C. Reactions were quenched with SDS loading buffer (50 μL-4X) and run on SDS-PAGE.

MAGL [4] = biological target: T3, MAGL; experiment: Mouse brain proteomes from inhibitor treated mice (oral gavage, sacrifice 4 h after administration, ABPP analysis); type: in vivo; conditions: 5 mg/kg oral gavage
In short: (§3)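 Read-out is % inhibition at 5 mg/kg in brain proteomes profiled by activity-based protein profiling. Inhibitors were dosed orally to wild-type C57Bl/6J mice, with sacrifice at 4 h.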

ABHD6 [5] = biological target: T2, ABHD6; experiment: Mouse brain proteomes from inhibitor treated mice (oral gavage, sacrifice 4 h after administration, ABPP analysis), ABHD6; type: in vivo; conditions: 5 mg/kg oral gavage
In short: as §3

FAAH [6] = biological target: T1, FAAH; experiment: Mouse brain proteomes from inhibitor treated mice (oral gavage, sacrifice 4 h after administration, ABPP analysis), FAAH; type: in vivo; conditions: 5 mg/kg oral gavage
In short: as §3

MAGL [7] = biological target: MAGL (Homo sapiens (Human), UniProt Q99685); experiment: In vitro competitive activity-based protein profiling (human prefrontal cortex or cell membrane fractions; hMAGL expressed in HEK293T cells); type: biochemical; conditions: human proteome
Protocol: In Vitro Competitive Activity-Based Protein Profiling (Human).
Proteomes (human prefrontal cortex or cell membrane fractions) (50 μL, 1.0-2.0 mg/mL total protein concentration) were preincubated with varying concentrations of inhibitors at 37° C. After 30 min, FP-Rh or JW912 (1.0 μL, 50 μM in DMSO) was added and the mixture was incubated for another 30 min at room temperature. Reactions were quenched with SDS loading buffer (15 μL-4X) and run on SDS-PAGE.
Recombinant Expression of Human MAGL in HEK293T Cells.
Cell lysates were diluted with mock proteomes for use in competitive ABPP experiments.

T2 sequence (Q8R2Y0 whole entry): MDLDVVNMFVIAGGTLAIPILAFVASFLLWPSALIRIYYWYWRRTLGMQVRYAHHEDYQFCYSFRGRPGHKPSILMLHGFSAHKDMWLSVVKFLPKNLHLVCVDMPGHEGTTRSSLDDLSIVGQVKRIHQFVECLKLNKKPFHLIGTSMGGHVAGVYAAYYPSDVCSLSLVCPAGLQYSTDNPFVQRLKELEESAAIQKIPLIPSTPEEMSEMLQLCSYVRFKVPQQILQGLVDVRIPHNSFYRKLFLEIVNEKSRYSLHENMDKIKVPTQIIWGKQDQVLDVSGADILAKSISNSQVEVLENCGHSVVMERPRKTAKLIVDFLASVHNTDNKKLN
T1 sequence (O08914 whole entry): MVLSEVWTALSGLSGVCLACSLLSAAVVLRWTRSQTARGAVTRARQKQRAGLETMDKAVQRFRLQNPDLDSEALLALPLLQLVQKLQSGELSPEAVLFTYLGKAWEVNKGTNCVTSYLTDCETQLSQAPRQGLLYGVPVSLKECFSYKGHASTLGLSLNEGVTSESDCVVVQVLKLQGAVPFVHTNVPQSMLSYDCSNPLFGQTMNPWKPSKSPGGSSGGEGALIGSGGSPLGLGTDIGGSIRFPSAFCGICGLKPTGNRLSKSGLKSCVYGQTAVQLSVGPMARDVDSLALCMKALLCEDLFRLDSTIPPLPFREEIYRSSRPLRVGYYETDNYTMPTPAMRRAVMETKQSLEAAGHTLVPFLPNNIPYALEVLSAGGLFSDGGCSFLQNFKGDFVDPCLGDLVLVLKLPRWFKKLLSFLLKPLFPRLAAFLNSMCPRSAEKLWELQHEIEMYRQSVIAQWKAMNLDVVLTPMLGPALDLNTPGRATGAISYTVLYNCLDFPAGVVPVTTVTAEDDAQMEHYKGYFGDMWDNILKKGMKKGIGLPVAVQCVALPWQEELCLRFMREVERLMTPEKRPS
T3 sequence (O35678 whole entry): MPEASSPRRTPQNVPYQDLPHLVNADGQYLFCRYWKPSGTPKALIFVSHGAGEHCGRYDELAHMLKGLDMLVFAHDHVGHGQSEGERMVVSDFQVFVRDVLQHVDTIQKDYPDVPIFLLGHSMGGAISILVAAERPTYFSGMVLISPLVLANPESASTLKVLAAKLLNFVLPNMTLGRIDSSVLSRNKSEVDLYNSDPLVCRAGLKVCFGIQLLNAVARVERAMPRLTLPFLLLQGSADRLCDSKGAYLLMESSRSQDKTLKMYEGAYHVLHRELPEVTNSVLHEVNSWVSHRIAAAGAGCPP
MAGL (Homo sapiens (Human), UniProt Q99685), sequence (Q99685 whole entry): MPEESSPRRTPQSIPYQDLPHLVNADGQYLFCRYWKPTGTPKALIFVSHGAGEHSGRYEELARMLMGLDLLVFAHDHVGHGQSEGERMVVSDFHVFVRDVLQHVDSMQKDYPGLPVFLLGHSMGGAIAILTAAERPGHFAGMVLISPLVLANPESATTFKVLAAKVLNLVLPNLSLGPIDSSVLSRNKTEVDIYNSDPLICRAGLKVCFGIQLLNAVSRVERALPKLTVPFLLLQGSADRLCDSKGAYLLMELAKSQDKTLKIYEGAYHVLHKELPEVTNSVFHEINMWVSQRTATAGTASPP

inhibition at 1 µM (FAAH [1]) | inhibition at 1 µM (ABHD6 [2]) | IC50 (MAGL [3]) | IC50 (FAAH [1]) | MAGL % Inh 5 mg/kg (mouse) (MAGL [4]) | ABHD6 % Inh 5 mg/kg (mouse) (ABHD6 [5]) | FAAH % Inh 5 mg/kg (mouse) (FAAH [6]) | IC50 (MAGL [7]) | inhibition at 1 µM (MAGL [3]) | SMILES
< 25% | < 25% |  |  |  |  |  |  |  | O=C(O)C1CCN(c2cc(F)ccc2CN2CCCC23CCN(C(=O)OC(C(F)(F)F)C(F)(F)F)CC3)CC1 [Example 235]
 |  | < 100 nM | > 1000 nM | ### (### is ≥ 75%) | ### (### is ≥ 75%) | # (# is < 25%) |  |  | CC(=O)N1CCCc2cccc(CN3CCC4(CCN(C(=O)OC(C(F)(F)F)C(F)(F)F)CC4)C3)c21 [Example 70, 1,1,1,3,3,3-Hexafluoropropan-2-yl 2-((1-acetyl-1,2,3,4-tetrahydroquinolin-8-yl)methyl)-2,8-diazaspiro[4.5]decane-8-carboxylate]
< 25% | < 25% |  |  | ### (### is ≥ 75%) | # (# is < 25%) | # (# is < 25%) | < 100 nM | > 75% | O=C(O)C1CCCCN1c1cc(CN2CCCC23CCN(C(=O)OC(C(F)(F)F)C(F)(F)F)CC3)cc(C(F)(F)F)c1 (stereo not drawn) [Example 226]
< 25% | < 25% |  |  |  |  |  | < 100 nM | > 75% | CC1(C(=O)O)CCN(c2cc(CN3CCCC34CCN(C(=O)OC(C(F)(F)F)C(F)(F)F)CC4)cc(C(F)(F)F)c2)C1 (stereo not drawn) [Example 231]
